In patent US20130028987A1, “Method of treating psoriasis” (priority 2011, published 2013):

System: phosphorylase kinase
Test: inhibition of phosphorylase kinase activity
Type: biochemical
Details: findings of the instant inventor; no experiment described

COc1cc(/C=C/C(=O)CC(=O)/C=C/c2ccc(O)c(OC)c2)ccc1O [Curcumin]
inhibition of phosphorylase kinase: selective and non-competitive inhibitor of phosphorylase kinase
